In patent publication US20130102595A1 (Curis, Inc., priority 2011, published 2013):

Columns and labels:
[1] = system: HDACs (HeLa cell nuclear extracts); experiment: HDAC enzymatic activity, Biomol Color de Lys system; type: biochemical; details: 1 hour, 25° C.
In short: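 HeLa nuclear extract incubated with serially diluted compound and […] artificial substrate in 50 mM Tris/Cl pH 8.0, 137 mM NaCl, 2.7 mM KCl, 1 mM MgCl2. Run 1 h at 25 °C, stopped with developer. Fluorescence read (ex 350-380, em 440-460 nm); IC50 from sigmoidal dose-response fit.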

[2] = target: T1, mTor serine/threonine protein kinase (Homo sapiens, UniProt P42345); experiment: mTor kinase radioisotope assay; type: biochemical; details: 70 uM ATP, 40 minutes; read-out: m-TOR IC50
T1 construct: FLAG; made in house; host or cells: Baculovirus expression system in Sf21 cells
In short: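 FLAG-tagged full-length recombinant human mTor from baculovirus/Sf21, incubated with p70S6K C-terminal fragment (2 mg/ml) and 70 uM ATP plus 33P-ATP tracer in 50 mM HEPES pH 7.5, 3 mM MnCl2, 40 min at room temperature. Phosphoric acid stop, filtermat capture, scintillation counting; IC50 from sigmoidal dose-response fit.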

[3] = system: A549; experiment: Cell proliferation assay (CellTiter-Glo); type: cell-based; details: Homo sapiens, NSCLC, 72 hours, 0.5% fetal bovine serum, read-out: antiproliferative activity IC50, A549
In short: (§1)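 Cells seeded at 5,000 to 10,000 per well were exposed to a range of compound concentrations for 72 hours in 0.5% fetal bovine serum. Growth inhibition was then determined from ATP content by luciferase luminescence after a 30-minute lysis incubation.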

[4] = system: CFPAC-1; experiment: Cell proliferation assay (CellTiter-Glo); type: cell-based; details: Homo sapiens, Pancreas, 72 hours, 0.5% fetal bovine serum, read-out: antiproliferative activity IC50, CFPAC-1
In short: as §1

[5] = system: CaPan2; experiment: Cell proliferation assay (CellTiter-Glo); type: cell-based; details: Homo sapiens, Capan-2; Pancreas; 72 hours, 0.5% fetal bovine serum; read-out: antiproliferative activity IC50, CaPan2
In short: as §1

[6] = system: Calu6; experiment: Cell proliferation assay (CellTiter-Glo); type: cell-based; details: Homo sapiens, Calu-6; NSCLC; 72 hours, 0.5% fetal bovine serum; read-out: antiproliferative activity IC50, Calu6
In short: as §1

[7] = system: H2122; experiment: Cell proliferation assay (CellTiter-Glo); type: cell-based; details: Homo sapiens, NCI-H2122; NSCLC; 72 hours, 0.5% fetal bovine serum; read-out: antiproliferative activity IC50, H2122
In short: as §1

[8] = system: H292; experiment: Cell proliferation assay (CellTiter-Glo); type: cell-based; details: Homo sapiens, NCI-H292; NSCLC; 72 hours, 0.5% fetal bovine serum; read-out: antiproliferative activity IC50, H292
In short: as §1

[9] = system: H358; experiment: Cell proliferation assay (CellTiter-Glo); type: cell-based; details: Homo sapiens, NCI-H358; NSCLC; 72 hours, 0.5% fetal bovine serum; read-out: antiproliferative activity IC50, H358
In short: as §1

[10] = system: H460; experiment: Cell proliferation assay (CellTiter-Glo); type: cell-based; details: Homo sapiens, NCI-H460; NSCLC; 72 hours, 0.5% fetal bovine serum; read-out: antiproliferative activity IC50, H460
In short: as §1

[11] = system: HCT116; experiment: Cell proliferation assay (CellTiter-Glo); type: cell-based; details: Homo sapiens, HCT-116; Colon; 72 hours, 0.5% fetal bovine serum; read-out: antiproliferative activity IC50, HCT116
In short: as §1

[12] = system: MiaPaca1; experiment: Cell proliferation assay (CellTiter-Glo); type: cell-based; details: Pancreas; 72 hours, 0.5% fetal bovine serum; read-out: antiproliferative activity IC50, MiaPaca1
In short: as §1

[13] = system: OPM-2; experiment: Cell proliferation assay (CellTiter-Glo); type: cell-based; details: Homo sapiens, Multiple Myeloma, 72 hours, 0.5% fetal bovine serum, read-out: antiproliferative activity IC50, OPM-2
In short: as §1

[14] = system: PANC-1; experiment: Cell proliferation assay (CellTiter-Glo); type: cell-based; details: Homo sapiens, Pancreas, 72 hours, 0.5% fetal bovine serum, read-out: antiproliferative activity IC50, PANC-1
In short: as §1

[15] = system: SW1990; experiment: Cell proliferation assay (CellTiter-Glo); type: cell-based; details: Homo sapiens, Pancreas, 72 hours, 0.5% fetal bovine serum, read-out: antiproliferative activity IC50, SW1990
In short: as §1

[16] = system: SW403; experiment: Cell proliferation assay (CellTiter-Glo); type: cell-based; details: Homo sapiens, SW-403; Colon; 72 hours, 0.5% fetal bovine serum; read-out: antiproliferative activity IC50, SW403
In short: as §1

[17] = system: SW620; experiment: Cell proliferation assay (CellTiter-Glo); type: cell-based; details: Homo sapiens, SW-620; Colon; 72 hours, 0.5% fetal bovine serum; read-out: antiproliferative activity IC50, SW620
In short: as §1

[18] = system: SWI-116; experiment: Cell proliferation assay (CellTiter-Glo); type: cell-based; details: Colon; 72 hours, 0.5% fetal bovine serum; read-out: antiproliferative activity IC50, SWI-116
In short: as §1

[19] = system: T-84; experiment: Cell proliferation assay (CellTiter-Glo); type: cell-based; details: Homo sapiens, T84; Colon; 72 hours, 0.5% fetal bovine serum; read-out: antiproliferative activity IC50, T-84
In short: as §1

[20] = system: WiDr; experiment: Cell proliferation assay (CellTiter-Glo); type: cell-based; details: Homo sapiens, Colon, 72 hours, 0.5% fetal bovine serum, read-out: antiproliferative activity IC50, WiDr
In short: as §1

[21] = system: CaPan1; experiment: Cell proliferation assay (CellTiter-Glo); type: cell-based; details: Homo sapiens, CAPAN-1; Pancreas; 72 hours, 0.5% fetal bovine serum; read-out: antiproliferative activity IC50, CaPan1
In short: as §1

[22] = system: LN-Cap; experiment: Cell proliferation assay (CellTiter-Glo); type: cell-based; details: Homo sapiens, LNCaP; Prostate; 72 hours, 0.5% fetal bovine serum; read-out: antiproliferative activity IC50, LN-Cap
In short: as §1

[23] = system: MDA-MB-231; experiment: Cell proliferation assay (CellTiter-Glo); type: cell-based; details: Homo sapiens, Breast, 72 hours, 0.5% fetal bovine serum, read-out: antiproliferative activity IC50, MDA-MB-231
In short: as §1

[24] = system: OVCAR-5; experiment: Cell proliferation assay (CellTiter-Glo); type: cell-based; details: Homo sapiens, Ovarian, 72 hours, 0.5% fetal bovine serum, read-out: antiproliferative activity IC50, OVCAR-5
In short: as §1

[25] = system: PC-3; experiment: Cell proliferation assay (CellTiter-Glo); type: cell-based; details: Homo sapiens, Prostate, 72 hours, 0.5% fetal bovine serum, read-out: antiproliferative activity IC50, PC-3
In short: as §1

[26] = system: glioblastoma xenografts; details: oral dosage; cited from earlier work

Row | Structure (SMILES) | IC50 [3] [µM] | IC50 [4] [µM] | IC50 [5] [µM] | IC50 [6] [µM] | IC50 [7] [µM] | IC50 [8] [µM] | IC50 [9] [µM] | IC50 [10] [µM] | IC50 [11] [µM] | IC50 [12] [µM] | IC50 [13] [µM] | IC50 [14] [µM] | IC50 [15] [µM] | IC50 [16] [µM] | IC50 [17] [µM] | IC50 [18] [µM] | IC50 [19] [µM] | IC50 [20] [µM] | other results
1 | COc1ccc(-c2nc(N3CCOCC3)c3sc(CN(C)c4ncc(C(=O)NO)cn4)cc3n2)cn1 [Compound 236, N-Hydroxy-2-(((2-(6-methoxypyridin-3-yl)-4-morpholinothieno[3,2-d]pyrimidin-6-yl)methyl)(methyl)amino)pyrimidine-5-carboxamide] | 0.01 to 0.1 | 0.01 to 0.1 | 0.01 to 0.1 | 0.01 to 0.1 | < 0.01 | < 0.01 | < 0.01 | 0.01 to 0.1 | < 0.01 | 0.01 to 0.1 | < 0.01 | 0.01 to 0.1 | < 0.01 | < 0.01 | < 0.01 | < 0.01 | 0.01 to 0.1 | 0.01 to 0.1 | IC50 [1]: < 0.1 µM; IC50 [2]: 1 to 10 µM
2 | CS(=O)(=O)N1CCN(Cc2cc3nc(-c4cccc5[nH]ncc45)nc(N4CCOCC4)c3s2)CC1 [GDC-0941, reference compound] | 0.1 to 1 | 1 to 10 | 1 to 10 | 1 to 10 | 1 to 10 | 1 to 10 | 1 to 10 | 0.1 to 1 | 0.1 to 1 | 1 to 10 | 0.1 to 1 | 1 to 10 | 1 to 10 | 1 to 10 | 0.1 to 1 | 0.1 to 1 | 1 to 10 | 0.1 to 1 | IC50 [21]: 1 to 10 µM; IC50 [22]: 0.1 to 1 µM; IC50 [23]: > 10 µM; IC50 [24]: 0.1 to 1 µM; IC50 [25]: 1 to 10 µM; effect in glioblastoma xenografts in vivo [26]: tumor suppression
